In US20210045383A1, “ORGANIC METABOLITE COMPOSITIONS AND METHODS OF USE AS MITICIDES FOR HONEY BEES” (priority 2018, published 2021):

How the values were obtained:
Varroa destructor = assay: Test hives treated with miticide treatment strips; mite levels by sugar roll method and sticky board mite drops; settings: for mite loads once treatment resumed: after skipped mid-summer treatment (mite counts above 3 per 100 bees in September); for mites loads in the treated hives: single treatments on a three-month schedule
honey bees = settings: applied using the Dribble Method; cited from earlier work

| Structure (SMILES) | mite loads once treatment resumed (Varroa destructor) | mites loads in the treated hives (Varroa destructor) | bee mortality (honey bees) |
| --- | --- | --- | --- |
| N[C@@H](CC(=O)O)C(=O)O [aspartic acid] | reduced mite loads to an acceptable level | zero | – |
| N[C@@H](CCC(=O)O)C(=O)O [glutamic acid] | reduced mite loads to an acceptable level | zero | – |
| O=C(O)C(=O)O [oxalic acid] | – | – | Increased bee mortality |
